US9139570B2, “Solid forms of an antiviral compound” (priority 2012, dated 2015)
“And” between values parts separate entries of the source, which are not always exact repeats. Equal values may be shown once. Read-outs that look alike come from different tables or passages of the source.

What was measured:
[1] = Dynamic vapor sorption (DVS) hygroscopicity; type: physicochemical; details: for moisture uptake / weight gain (DVS): at 90% relative humidity
[2] = Solubility of Compound I over a greater pH range; details: aqueous buffer
[3] = Stable form screen (slurry in solvents, XRPD); type: physicochemical; details: 2 weeks
Procedure: Approximately 15-60 mg of amorphous (1-{3-[6-(9,9-difluoro-7-{2-[5-(2-methoxycarbonylamino-3-methyl-butyryl)-5-aza-spiro[2.4]hept-6-yl]-3H-imidazol-4-yl}-9H-fluoren-2-yl)-1H-benzoimidazol-2-yl]-2-aza-bicyclo[2.2.1]heptane-2-carbonyl}-2-methyl-propyl)-carbamic acid (HPLC purity of 99.3%) were weighed and transferred to a vial equipped with a mini magnetic stir bar. […] The slurry was allowed to stir for two weeks at room temperature (˜22° C.) and examined periodically.
After two weeks, a sample of 300 μL of the slurry was removed from the vial, transferred to a centrifuge filter (Costar, 0.45 micron) and centrifuged at 1000 rpm for 2 minutes. The solid in the wet cake form were analyzed using XRPD analysis (PANalytical X'Pert PRO X-ray powder diffractometer). This diffractometer uses Cu-Kα radiation at a wavelength of 1.54178 Å, and it operates under reflection mode. Scan range is from 2 to 40 degree 2 theta. The step size is 0.0080 at a scan speed of 0.13°/s, which gives about 5 min per scan. After air drying the small sample, XRPD analysis was performed again to monitor any change in the diffraction pattern between the wet and dry material. Thermogravimetric analysis (TGA) was run on the saturated solution to determine the solubility of the equilibrating solids in the solvent when the solid appeared to be crystalline.

Slurry test in water = type: physicochemical
Source text: The source of water is believed to be moisture in the air during material transfer.

[4] = Dissolution rate / kinetic solubility in water at pH 3
[5] = Photostability of solid forms, photoexposure 0.9 M Lux-hrs, HPLC analysis; type: physicochemical
Source text: FIG. 6 compares the photodegradation behaviors of amorphous Compound I (vertical stripes), Compound I Form II (horizontal stripes), and a partially amorphous hydrochloride salt of Compound I (diagonal stripes) during photoexposure at 0.9 M Lux-hrs. The leftmost group of bars represents the overall decrease in HPLC % AN of these three forms of Compound I. The middle group of bars represents the formation of a primary photodegradation impurity resulting from each form of Compound I. The rightmost group of bars similarly represents the formation of a secondary photodegradation impurity that eluted on HPLC at relative retention time (RRT) 1.67.
HPLC analyses of the samples compared the amounts of photodegradation products in each sample. […] For example, Form II of Compound I gave rise to the lowest (2.24% AN) amount of photodegradation in this experiment.
The middle group and rightmost group of bars depict the amounts of two of the major photodegradation impurities formed after the three solid forms of Compound I were photoexposed.

COC(=O)N[C@H](C(=O)N1CC2(CC2)C[C@H]1c1ncc(-c2ccc3c(c2)C(F)(F)c2cc(-c4ccc5nc([C@@H]6[C@H]7CC[C@H](C7)N6C(=O)[C@@H](NC(=O)OC)C(C)C)[nH]c5c4)ccc2-3)[nH]1)C(C)C [Compound I Form V, (1-{3-[6-(9,9-difluoro-7-{2-[5-(2-methoxycarbonylamino-3-methyl-butyryl)-5-aza-spiro[2.4]hept-6-yl]-3H-imidazol-4-yl}-9H-fluoren-2-yl)-1H-benzoimidazol-2-yl]-2-aza-bicyclo[2.2.1]heptane-2-carbonyl}-2-methyl-propyl)-carbamic acid methyl ester ethyl acetate solvate]
hygroscopicity by DVS (words) ([1]; listed as Form V): non-hygroscopic

COC(=O)N[C@H](C(=O)N1CC2(CC2)C[C@H]1c1ncc(-c2ccc3c(c2)C(F)(F)c2cc(-c4ccc5nc([C@@H]6[C@H]7CC[C@H](C7)N6C(=O)[C@@H](NC(=O)OC)C(C)C)[nH]c5c4)ccc2-3)[nH]1)C(C)C [Compound I, (1-{3-[6-(9,9-difluoro-7-{2-[5-(2-methoxycarbonylamino-3-methyl-butyryl)-5-aza-spiro[2.4]hept-6-yl]-3H-imidazol-4-yl}-9H-fluoren-2-yl)-1H-benzoimidazol-2-yl]-2-aza-bicyclo[2.2.1]heptane-2-carbonyl}-2-methyl-propyl)-carbamic acid methyl ester]
solubility [2]: < 1 µg/mL

COC(=O)N[C@H](C(=O)N1CC2(CC2)C[C@H]1c1ncc(-c2ccc3c(c2)C(F)(F)c2cc(-c4ccc5nc([C@@H]6[C@H]7CC[C@H](C7)N6C(=O)[C@@H](NC(=O)OC)C(C)C)[nH]c5c4)ccc2-3)[nH]1)C(C)C [Compound I Form XV, (1-{3-[6-(9,9-difluoro-7-{2-[5-(2-methoxycarbonylamino-3-methyl-butyryl)-5-aza-spiro[2.4]hept-6-yl]-3H-imidazol-4-yl}-9H-fluoren-2-yl)-1H-benzoimidazol-2-yl]-2-aza-bicyclo[2.2.1]heptane-2-carbonyl}-2-methyl-propyl)-carbamic acid methyl ester]
hygroscopicity by DVS (words) ([1]; listed as Form XV): non-hygroscopic

COC(=O)N[C@H](C(=O)N1CC2(CC2)C[C@H]1c1ncc(-c2ccc3c(c2)C(F)(F)c2cc(-c4ccc5nc([C@@H]6[C@H]7CC[C@H](C7)N6C(=O)[C@@H](NC(=O)OC)C(C)C)[nH]c5c4)ccc2-3)[nH]1)C(C)C [Compound I Form III, (1-{3-[6-(9,9-difluoro-7-{2-[5-(2-methoxycarbonylamino-3-methyl-butyryl)-5-aza-spiro[2.4]hept-6-yl]-3H-imidazol-4-yl}-9H-fluoren-2-yl)-1H-benzoimidazol-2-yl]-2-aza-bicyclo[2.2.1]heptane-2-carbonyl}-2-methyl-propyl)-carbamic acid methyl ester]
moisture uptake / weight gain (DVS) ([1]; listed as Form III): less than 0.3% | hygroscopicity by DVS (words) ([1]; listed as Form III): nonhygroscopic

COC(=O)N[C@H](C(=O)N1CC2(CC2)C[C@H]1c1ncc(-c2ccc3c(c2)C(F)(F)c2cc(-c4ccc5nc([C@@H]6[C@H]7CC[C@H](C7)N6C(=O)[C@@H](NC(=O)OC)C(C)C)[nH]c5c4)ccc2-3)[nH]1)C(C)C [Compound I D-tartrate, (1-{3-[6-(9,9-difluoro-7-{2-[5-(2-methoxycarbonylamino-3-methyl-butyryl)-5-aza-spiro[2.4]hept-6-yl]-3H-imidazol-4-yl}-9H-fluoren-2-yl)-1H-benzoimidazol-2-yl]-2-aza-bicyclo[2.2.1]heptane-2-carbonyl}-2-methyl-propyl)-carbamic acid D-tartrate]
moisture uptake / weight gain (DVS) [1]: less than 3% | physical form by XRPD after slurry in various solvents [3]: physical form did not change

COC(=O)N[C@H](C(=O)N1CC2(CC2)C[C@H]1c1ncc(-c2ccc3c(c2)C(F)(F)c2cc(-c4ccc5nc([C@@H]6[C@H]7CC[C@H](C7)N6C(=O)[C@@H](NC(=O)OC)C(C)C)[nH]c5c4)ccc2-3)[nH]1)C(C)C [amorphous Compound I]
hygroscopicity by DVS (words) [1]: hygroscopic | moisture induced phase transformation ([1]; any humidity level): does not undergo moisture induced phase transformation | moisture uptake / weight gain (DVS) [1]: 5.4% and 5.6%

COC(=O)N[C@H](C(=O)N1CC2(CC2)C[C@H]1c1ncc(-c2ccc3c(c2)C(F)(F)c2cc(-c4ccc5nc([C@@H]6[C@H]7CC[C@H](C7)N6C(=O)[C@@H](NC(=O)OC)C(C)C)[nH]c5c4)ccc2-3)[nH]1)C(C)C [Compound I Form VIII, (1-{3-[6-(9,9-difluoro-7-{2-[5-(2-methoxycarbonylamino-3-methyl-butyryl)-5-aza-spiro[2.4]hept-6-yl]-3H-imidazol-4-yl}-9H-fluoren-2-yl)-1H-benzoimidazol-2-yl]-2-aza-bicyclo[2.2.1]heptane-2-carbonyl}-2-methyl-propyl)-carbamic acid methyl ester]
stability in water (slurry test) (Slurry test in water): stable in water | water absorbed (DVS) [1]: roughly one equivalent of water

COC(=O)N[C@H](C(=O)N1CC2(CC2)C[C@H]1c1ncc(-c2ccc3c(c2)C(F)(F)c2cc(-c4ccc5nc([C@@H]6[C@H]7CC[C@H](C7)N6C(=O)[C@@H](NC(=O)OC)C(C)C)[nH]c5c4)ccc2-3)[nH]1)C(C)C [Compound I Form II, (1-{3-[6-(9,9-difluoro-7-{2-[5-(2-methoxycarbonylamino-3-methyl-butyryl)-5-aza-spiro[2.4]hept-6-yl]-3H-imidazol-4-yl}-9H-fluoren-2-yl)-1H-benzoimidazol-2-yl]-2-aza-bicyclo[2.2.1]heptane-2-carbonyl}-2-methyl-propyl)-carbamic acid methyl ester monoacetone solvate]
dissolution rate ranking [4]: slowest dissolution rate | photostability compared with amorphous Compound I and partially amorphous HCl salt [5]: best photostability among the three forms compared | overall decrease in HPLC % AN (amount of photodegradation) ([5]; solid): 2.24 % AN
